The source of these data is ChEMBL document CHEMBL4364295, “Discovery of a First-in-Class Receptor Interacting Protein 2 (RIP2) Kinase Specific Clinical Candidate, 2-((4-(Benzo[d]thiazol-5-ylamino)-6-(tert-butylsulfonyl)quinazolin-7-yl)oxy)ethyl Dihydrogen Phosphate, for the Treatment of Inflammatory Diseases” (J Med Chem, 2019).

The structures appear in SMILES notation. The source made the active and inactive calls. No cut-off for these calls is given here. Some results are limits rather than exact numbers.

Data set [1] is described as follows: AUC in Beagle dog at 2 mg/kg, po by LC/MS/MS analysis. It is filed as ADME, organism-based, Canis lupus familiaris. The settings on record: in vivo.
A short description of data set [2]: AUC in Gottingen minipig at 1 mg/kg, po by LC/MS/MS analysis. It is filed as ADME, organism-based, Sus scrofa. The settings on record: pig, in vivo.
Data set [3] has as its target Voltage-gated inwardly rectifying potassium channel KCNH2 (Homo sapiens, UniProt Q12809). As to the kind of experiment: Inhibition of human ERG (1159 residues) expressed in CHOK1 cells at -80 mV holding potential measured after 5 mins by QPatch electrophysiology method. It is filed as cell-based.
Data set [4] in a line: Clearance in minipig hepatocytes. It is filed as ADME, cell-based, Sus scrofa, Hepatocyte. The settings on record: pig.
The nature of data set [5]: AUC in Sprague-Dawley rat assessed as 2-((4-(Benzo[d]thiazol-5-ylamino)-6-(tert-butylsulfonyl)quinazolin-7-yl)oxy)ethanol level at 2 mg/kg, po by LC/MS/MS analysis. The settings on record: in vivo. It is filed as ADME, organism-based.
A short description of data set [6]: Dose normalized AUC in Sprague-Dawley rat at 20 mg/kg, po using crystalline sample during 7 day dose ranging study by LC/MS/MS analysis. The class given is ADME, organism-based. The settings on record: in vivo, 168 h.
A short description of data set [7]: Drug uptake in po dosed Sprague-Dawley rat systemic circulation by LC/MS/MS analysis. It is filed as ADME, organism-based. The conditions noted are these: in vivo.
Data set [8] in a line: Cmax in Gottingen minipig at 1 mg/kg, po by LC/MS/MS analysis. The class given is ADME, organism-based, Sus scrofa. The arrangement: dose 1 mg/kg, route oral. The settings on record: pig, in vivo.
Data set [9] is described as follows: Terminal half life in Beagle dog at 2 mg/kg, po or 1.1 mg/kg, iv by LC/MS/MS analysis. The class given is ADME, organism-based, Canis lupus familiaris. The settings on record: in vivo, read-out: beta t1/2 (converted).
The nature of data set [10]: Clearance in human hepatocytes. The class given is ADME, cell-based, Hepatocyte.
For a further data set, the system named is Cricetinae. Nature of the data set: Displacement of [125I]2-iodomelatonin from hamster MT3 receptor at 10 uM measured after 60 mins by scintillation counting method. For orientation: Displacement assays read how much labelled ligand stays bound in the presence of the test substance.
Data set [11] can be described thus: AUC in Sprague-Dawley rat at 60 mg/kg, po using crystalline sample during 7 day dose ranging study by LC/MS/MS analysis. The settings on record: in vivo. It is filed as ADME, organism-based.
Data set [12] can be described thus: Passive permeability in MDCK cells. The settings on record: dog, read-out: permeability. It is filed as ADME, cell-based, Canis lupus familiaris.
The nature of data set [13]: Cmax in Sprague-Dawley rat at 20 mg/kg, po using crystalline sample during 7 day dose ranging study by LC/MS/MS analysis. It is filed as ADME, organism-based. The arrangement: dose 20 mg/kg, route oral. The settings on record: in vivo.
In data set [14] the target is Serine/threonine-protein kinase 10 (Homo sapiens) (UniProt O94804). As to the kind of experiment: Inhibition of human STK10 at 1 uM using RLGRDKYKTLRQIRQ as substrate in presence of [gamma-33P]ATP relative to control.
Data set [15] concerns the target Nucleotide-binding oligomerization domain-containing protein 2 (Homo sapiens, UniProt Q9HC29). Nature of the data set: Inhibition of NOD2 in human monocytes assessed as reduction in MDP-induced TNFalpha production preincubated for 30 mins followed by MDP-stimulation and measured after 6 hrs by immunoassay. It is filed as cell-based.
Data set [16] is described as follows: Oral bioavailability in Gottingen minipig at 1 mg/kg by LC/MS/MS analysis. The class given is ADME, organism-based, Sus scrofa. The conditions noted are these: pig, in vivo.
Data set [17] is described as follows: Clearance in Beagle dog at 2 mg/kg, po or 1.1 mg/kg, iv by LC/MS/MS analysis. The class given is ADME, organism-based, Canis lupus familiaris. The conditions noted are these: in vivo.
The nature of data set [18]: Half life in dog blood. The class given is ADME, tissue-based, Canis lupus familiaris.
Data set [19] is described as follows: Oral bioavailability in Sprague-Dawley rat assessed as 2-((4-(Benzo[d]thiazol-5-ylamino)-6-(tert-butylsulfonyl)quinazolin-7-yl)oxy)ethanol level at 2 mg/kg by LC/MS/MS analysis. The class given is ADME, organism-based. The settings on record: in vivo.
Data set [20] is described as follows: Prodrug conversion in human hepatocytes assessed as dephosphorylation at 20 uM measured after 4 hrs. The class given is ADME, cell-based, Hepatocyte.
A short description of data set [21]: Terminal half life in Sprague-Dawley rat assessed as 2-((4-(Benzo[d]thiazol-5-ylamino)-6-(tert-butylsulfonyl)quinazolin-7-yl)oxy)ethanol level at 2 mg/kg, po or 1.1 mg/kg, iv by LC/MS/MS analysis. The class given is ADME, organism-based. The settings on record: in vivo.
A short description of data set [22]: Volume of distribution at steady state in Gottingen minipig assessed as 2-((4-(Benzo[d]thiazol-5-ylamino)-6-(tert-butylsulfonyl)quinazolin-7-yl)oxy)ethanol level at 2 mg/kg, po or 1 mg/kg, iv by LC/MS/MS analysis. It is filed as ADME, organism-based, Sus scrofa. The conditions noted are these: pig, in vivo.
Data set [23] can be described thus: Prodrug conversion in rat hepatocytes assessed as 2-(4-(benzo[d]thiazol-5-ylamino)-7-(2-hydroxyethoxy)quinazolin-6-ylsulfonyl)-2-methylpropan-1-ol formation at 20 uM measured after 4 hrs. It is filed as ADME, cell-based, Hepatocyte.
Data set [24] can be described thus: Prodrug conversion in minipig hepatocytes assessed as dephosphorylation at 20 uM measured after 4 hrs. It is filed as ADME, cell-based, Sus scrofa, Hepatocyte. The conditions noted are these: pig.
The nature of data set [25]: Terminal half life in Gottingen minipig assessed as 2-((4-(Benzo[d]thiazol-5-ylamino)-6-(tert-butylsulfonyl)quinazolin-7-yl)oxy)ethanol level at 2 mg/kg, po or 1 mg/kg, iv by LC/MS/MS analysis. It is filed as ADME, organism-based, Sus scrofa. The settings on record: pig, in vivo.
Data set [26] is described as follows: Prodrug conversion in rat hepatocytes assessed as benzothiazole ring opening at 20 uM measured after 4 hrs. The class given is ADME, cell-based, Hepatocyte.
A short description of data set [27]: Drug uptake in Han Wistar rat eye at 2 mg/kg, iv administered as infusion for 4 hrs. The conditions noted are these: in vivo. The class given is ADME, organism-based.
The nature of data set [28]: AUC in Gottingen minipig assessed as 2-((4-(Benzo[d]thiazol-5-ylamino)-6-(tert-butylsulfonyl)quinazolin-7-yl)oxy)ethanol level at 1 mg/kg, po by LC/MS/MS analysis. The settings on record: pig, in vivo. The class given is ADME, organism-based, Sus scrofa.
The nature of data set [29]: Half life in rat blood. It is filed as ADME, tissue-based.
A short description of data set [30]: Prodrug conversion in human hepatocytes assessed as (2S,3S,4S,5R,6R)-6-(2-(4-(benzo[d]thiazol-5-ylamino)-6-(tert-butylsulfonyl)quinazolin-7-yloxy)ethoxy)-3,4,5-trihydroxytetrahydro-2H-pyran-2-carboxylic acid formation at 20 uM measured after 4 hrs. The class given is ADME, cell-based, Hepatocyte.
Data set [31] in a line: Prodrug conversion in rat hepatocytes assessed as (2S,3S,4S,5R,6R)-6-(2-(4-(benzo[d]thiazol-5-ylamino)-6-(tert-butylsulfonyl)quinazolin-7-yloxy)ethoxy)-3,4,5-trihydroxytetrahydro-2H-pyran-2-carboxylic acid formation at 20 uM measured after 4 hrs. The class given is ADME, cell-based, Hepatocyte.
Data set [32] is described as follows: Toxicity in Sprague-Dawley rat during 6 week study. The conditions noted are these: in vivo, 1008 h.
Data set [33] is described as follows: Ratio of brain to blood concentration in Han Wistar rat assessed as 2-((4-(Benzo[d]thiazol-5-ylamino)-6-(tert-butylsulfonyl)quinazolin-7-yl)oxy)ethanol level at 2 mg/kg, iv administered as infusion for 4 hrs. It is filed as ADME, organism-based.
The nature of data set [34]: Prodrug conversion in minipig hepatocytes assessed as 2-(4-(benzo[d]thiazol-5-ylamino)-7-(2-hydroxyethoxy)quinazolin-6-ylsulfonyl)-2-methylpropan-1-ol formation at 20 uM measured after 4 hrs. It is filed as ADME, cell-based, Sus scrofa, Hepatocyte. The conditions noted are these: pig.
Data set [35] is described as follows: Volume of distribution at steady state in Sprague-Dawley rat assessed as 2-((4-(Benzo[d]thiazol-5-ylamino)-6-(tert-butylsulfonyl)quinazolin-7-yl)oxy)ethanol level at 2 mg/kg, po or 1.1 mg/kg, iv by LC/MS/MS analysis. It is filed as ADME, organism-based. The settings on record: in vivo.
Data set [36] is described as follows: Prodrug conversion in human hepatocytes assessed as benzothiazole ring opening at 20 uM measured after 4 hrs. The class given is ADME, cell-based, Hepatocyte.
A short description of data set [37]: Drug uptake in Sprague-Dawley rat systemic circulation at 2 mg/kg, po or 1.1 mg/kg, iv by LC/MS/MS analysis. It is filed as ADME, organism-based. The conditions noted are these: in vivo.
Data set [38] can be described thus: Prodrug conversion in minipig hepatocytes assessed as 2-(4-(benzo[d]thiazol-5-ylamino)-6-(tert-butylsulfonyl)-1,2,3,4-tetrahydroquinazolin-7-yloxy)ethanol formation at 20 uM measured after 4 hrs. The class given is ADME, cell-based, Sus scrofa, Hepatocyte. The conditions noted are these: pig.
Data set [39] can be described thus: Prodrug conversion in human hepatocytes assessed as oxidation at 20 uM measured after 4 hrs. It is filed as ADME, cell-based, Hepatocyte.

Voltage-gated inwardly rectifying potassium channel KCNH2, sequence (Q12809 whole entry): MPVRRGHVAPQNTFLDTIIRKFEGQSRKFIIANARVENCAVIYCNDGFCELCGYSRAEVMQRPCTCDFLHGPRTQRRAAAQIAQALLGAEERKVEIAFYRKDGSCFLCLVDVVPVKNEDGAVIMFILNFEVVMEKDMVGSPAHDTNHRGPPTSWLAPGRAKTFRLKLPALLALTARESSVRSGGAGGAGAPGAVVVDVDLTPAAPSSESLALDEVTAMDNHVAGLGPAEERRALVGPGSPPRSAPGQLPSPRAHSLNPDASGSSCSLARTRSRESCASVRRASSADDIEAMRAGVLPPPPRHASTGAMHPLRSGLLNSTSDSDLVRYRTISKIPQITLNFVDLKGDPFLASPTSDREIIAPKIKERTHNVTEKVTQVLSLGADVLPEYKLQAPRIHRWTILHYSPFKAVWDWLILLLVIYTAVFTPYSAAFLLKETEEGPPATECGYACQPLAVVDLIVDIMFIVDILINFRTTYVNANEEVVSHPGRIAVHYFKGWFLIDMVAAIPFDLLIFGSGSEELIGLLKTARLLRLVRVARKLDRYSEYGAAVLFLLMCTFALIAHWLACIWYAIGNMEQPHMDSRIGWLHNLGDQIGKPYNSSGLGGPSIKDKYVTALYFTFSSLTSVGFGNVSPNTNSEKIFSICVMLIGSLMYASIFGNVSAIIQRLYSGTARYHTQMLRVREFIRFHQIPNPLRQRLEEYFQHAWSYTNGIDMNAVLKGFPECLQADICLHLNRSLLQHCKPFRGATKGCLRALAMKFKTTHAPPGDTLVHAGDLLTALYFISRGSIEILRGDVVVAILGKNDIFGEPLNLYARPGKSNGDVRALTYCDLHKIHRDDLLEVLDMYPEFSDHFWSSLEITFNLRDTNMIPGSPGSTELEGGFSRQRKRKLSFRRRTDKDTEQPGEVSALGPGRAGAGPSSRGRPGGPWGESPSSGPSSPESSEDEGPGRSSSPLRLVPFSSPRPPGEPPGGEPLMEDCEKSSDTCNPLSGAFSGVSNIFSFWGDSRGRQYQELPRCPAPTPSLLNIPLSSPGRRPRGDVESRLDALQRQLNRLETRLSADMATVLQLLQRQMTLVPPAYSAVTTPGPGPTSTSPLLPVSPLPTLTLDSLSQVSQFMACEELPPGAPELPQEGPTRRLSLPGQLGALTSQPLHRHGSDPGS
Serine/threonine-protein kinase 10 (Homo sapiens), sequence (O94804 whole entry, looked up, the tested form may be a part): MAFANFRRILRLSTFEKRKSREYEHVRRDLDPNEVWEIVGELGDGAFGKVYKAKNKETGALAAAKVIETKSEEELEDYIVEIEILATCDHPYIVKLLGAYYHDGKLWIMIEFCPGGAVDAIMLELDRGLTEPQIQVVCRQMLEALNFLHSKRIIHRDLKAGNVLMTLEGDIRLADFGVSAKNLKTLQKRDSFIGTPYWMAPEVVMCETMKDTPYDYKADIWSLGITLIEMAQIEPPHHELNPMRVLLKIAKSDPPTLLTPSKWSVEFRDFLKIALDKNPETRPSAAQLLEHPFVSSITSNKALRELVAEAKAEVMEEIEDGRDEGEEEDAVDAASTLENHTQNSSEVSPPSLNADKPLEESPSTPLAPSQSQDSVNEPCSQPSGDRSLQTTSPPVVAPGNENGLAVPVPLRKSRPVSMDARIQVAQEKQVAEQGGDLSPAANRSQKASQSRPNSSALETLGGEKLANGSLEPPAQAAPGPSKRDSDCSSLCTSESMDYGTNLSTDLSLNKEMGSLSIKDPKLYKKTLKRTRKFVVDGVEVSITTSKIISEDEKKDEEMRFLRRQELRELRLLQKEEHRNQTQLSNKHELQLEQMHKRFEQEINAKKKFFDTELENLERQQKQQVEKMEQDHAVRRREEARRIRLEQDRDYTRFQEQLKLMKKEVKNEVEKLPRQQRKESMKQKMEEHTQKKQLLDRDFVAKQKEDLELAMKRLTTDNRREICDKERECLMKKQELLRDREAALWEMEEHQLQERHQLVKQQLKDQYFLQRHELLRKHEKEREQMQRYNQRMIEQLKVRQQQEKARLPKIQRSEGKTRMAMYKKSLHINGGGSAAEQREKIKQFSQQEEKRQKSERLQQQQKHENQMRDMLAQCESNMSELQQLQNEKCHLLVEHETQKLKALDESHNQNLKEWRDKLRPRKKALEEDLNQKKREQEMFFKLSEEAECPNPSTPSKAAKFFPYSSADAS
Nucleotide-binding oligomerization domain-containing protein 2, sequence (Q9HC29 whole entry, the tested form may be a part): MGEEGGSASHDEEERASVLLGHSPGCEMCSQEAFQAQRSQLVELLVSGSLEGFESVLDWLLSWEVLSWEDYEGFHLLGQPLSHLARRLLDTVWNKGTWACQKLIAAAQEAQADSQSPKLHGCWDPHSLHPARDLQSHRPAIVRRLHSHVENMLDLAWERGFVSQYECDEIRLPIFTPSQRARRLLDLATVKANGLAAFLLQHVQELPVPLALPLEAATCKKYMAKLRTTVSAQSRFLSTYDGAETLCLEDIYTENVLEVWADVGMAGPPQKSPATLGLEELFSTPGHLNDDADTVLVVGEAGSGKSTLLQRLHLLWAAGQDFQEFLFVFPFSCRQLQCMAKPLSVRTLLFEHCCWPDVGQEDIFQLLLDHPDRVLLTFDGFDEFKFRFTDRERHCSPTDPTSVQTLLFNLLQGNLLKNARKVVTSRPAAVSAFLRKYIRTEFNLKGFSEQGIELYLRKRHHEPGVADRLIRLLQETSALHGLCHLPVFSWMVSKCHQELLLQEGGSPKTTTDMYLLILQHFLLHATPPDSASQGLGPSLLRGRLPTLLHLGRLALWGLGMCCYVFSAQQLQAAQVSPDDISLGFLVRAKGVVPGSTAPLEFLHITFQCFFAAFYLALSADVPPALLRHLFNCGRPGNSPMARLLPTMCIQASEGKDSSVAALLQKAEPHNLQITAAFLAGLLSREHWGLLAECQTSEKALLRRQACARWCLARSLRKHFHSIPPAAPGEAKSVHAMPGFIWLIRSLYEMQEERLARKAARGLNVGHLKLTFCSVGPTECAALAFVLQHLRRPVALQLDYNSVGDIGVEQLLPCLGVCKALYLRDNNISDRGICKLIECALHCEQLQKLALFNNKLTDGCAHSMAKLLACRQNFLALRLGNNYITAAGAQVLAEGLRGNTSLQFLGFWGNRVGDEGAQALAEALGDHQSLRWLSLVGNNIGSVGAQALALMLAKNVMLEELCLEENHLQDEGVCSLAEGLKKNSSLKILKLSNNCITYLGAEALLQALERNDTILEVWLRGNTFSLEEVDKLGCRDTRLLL

With `CC(C)(C)S(=O)(=O)c1cc2c(Nc3ccc4scnc4c3)ncnc2cc1OCCO`, the AUC in [1] is 1800 ng·h/mL; in data set [2] it was 85 ng·h/mL; in data set [5], 460 ng·h/mL. Moreover, in [3], the half-inhibitory concentration (IC50) was more than 30 µM. The CLH in data set [4] was 0.55 mL/min/g; in [10], less than 0.48 mL/min/g. The compound also came in with an AUC/dose in data set [6] of 0.44 kg·h/L. Further, the Drug uptake result in [7] was “Not Active”. The Cmax in data set [8] is 31 ng/mL; in data set [13], 900 ng/mL. For the same compound, in data set [9], the half-life was 5.1 h. For the same compound, the inhibition result in the data set with Cricetinae was “Active”. Further, the AUC at 168 h in data set [11] was 23400 ng·h/mL. Further, the Papp in [12] is 16.6 ×10⁻⁶ cm/s. Also, the figures for the inhibition in data set [14] and in data set [15] were 70 to 90% and “Dose-dependent effect”, respectively. In data set [16], this compound returned an F of 26%. Moreover, the clearance in [17] came to 9.9 mL/min/kg.
Turning to `CC(C)(C)S(=O)(=O)c1cc2c(Nc3ccc4scnc4c3)ncnc2cc1OCCOP(=O)(O)O.[CaH2]`, the half-life in data set [18] amounted to 0.35 h; in data set [29] it was 0.583 h. For the same compound, in [19], the F is 77%. The Drug metabolism result in [20], in data set [23], in data set [24], in data set [26], in data set [30] and in [31] was “Metabolite_Detected” throughout. Moreover, the Drug metabolism result in [34], in [36], in data set [38] and in data set [39] was “Metabolite_Detected” throughout. Further, the “beta t1/2” value in data set [21] worked out at 2.4 h; in data set [25] it was 4.2 h. This compound gave an IC50 in data set [3] of more than 30 µM. Moreover, the Vdss in [22] and in [35] was 2.1 L/kg in each case. The area under the curve (AUC) in data set [5] was 580 ng·h/mL; in data set [28], 1100 ng·h/mL. The Drug uptake result in data set [7], in data set [27] and in data set [37] was “Not Active” throughout. Moreover, the Activity entry in data set [32] was “Non-Toxic”. Besides, in data set [33], the Ratio amounted to 0.065.

The AUC is the area under the concentration-time curve, a measure of exposure. Broadly, the IC50 is the concentration needed to halve the response being measured. A low value points to greater potency in that assay. What is called Cmax is the peak of the concentration-time curve. In general, inhibition refers to the share of the control response that was lost under treatment.
